Marks after values point to notes of the source that are not given here.
How the values were obtained:
Candida albicans = settings: modal value, n=10
Aspergillus flavus = settings: modal value, n=12
A. terrus = settings: modal value, n=7
C. tropicalis = settings: modal value, n=10
C. parasilosis = settings: modal value, n=10
T. tonsurans = settings: modal value, n=10
C. glabrate = settings: modal value, n=4
A. niger = settings: modal value, n=14
onychomycosis = assay: Treatment of onychomycosis with topical copper silicate (cream or solution), patient trial; format: in vivo, human; settings: for Clinical - 100% clear / Clinical - New growth clear / Complete cure (KOH negative, culture negative and 100% clear) / Mycology (KOH negative and culture negative) / Mycology (KOH negative or culture negative): interim, applied twice daily
Protocol: Subjects, not already receiving anti-fungal treatment, were assessed for clinical diagnosis of onychomycosis and photographs and nail clippings were taken. Those testing positive for onychomycosis were admitted to the trial.
The anti-fungal composition (cream or solution) was applied to the infected nail twice daily for the duration of the treatment.
Estimates of the nail area involved were made during clinical visits and photographs were taken. Nail clippings were collected for KOH and dermatophyte culture. […] Results
The results presented hereunder are interim results of a 12 month study. Patients entered the trial and commenced their treatment at different dates. […] Patients were assessed at 0 (commencement). 6 weeks and 12 weeks.

Fusarium spp. = settings: modal value, n=16
T. mentagrophytes = settings: modal value, n=12
Microsporum canis = settings: modal value, n=9
[1] = tested on: C. pseudotropicalis (kefyr); settings: modal value, n=1
Epidermophyton floccosum = settings: modal value, n=11
[2] = tested on: T. mentagrophytes var interdigitale; settings: modal value, n=19
Scopulariopsis spp. = settings: modal value, n=5
A. fumigatus = settings: modal value, n=12
Scedosporium spp. = settings: modal value, n=5
M. gypseum = settings: modal value, n=9
C. krusei = settings: modal value, n=1
Trichophyton rubrum = settings: modal value, n=26
[3] = Post-treatment Week 13 (N = 18)
[4] = Post-treatment Week 13 (N = 18), = 39 weeks
[5] = Post-treatment Week 26 (N = 18)
[6] = Treatment time Week 12 (N = 18)
[7] = Treatment time Week 26 (N = 18)

copper silicate
0.0175 % w/w as Cu: Minimum Inhibitory Concentration (MIC) (T. mentagrophytes) | Minimum Inhibitory Concentration (MIC) [2] | Minimum Fungicidal Concentration (MFC) (C. krusei) | Minimum Inhibitory Concentration (MIC) (C. krusei) | Minimum Inhibitory Concentration (MIC) (Trichophyton rubrum)
10: Dermatophyte culture Negative, number of patients (onychomycosis; [4]) | Dermatophyte culture Negative, number of patients (onychomycosis; Treatment time Week 6 (N = 18)) | % Nail infected >50%, number of patients (onychomycosis; [6])
8^@: Outcome Not effective, number of patients (onychomycosis; Post-treatment Week 13 (N = 18), includes 1 patient that is KOH negative)
5: Outcome Mycological change (culture positive to culture negative), number of patients (onychomycosis; [5]) | % Nail infected 11-50%, number of patients (onychomycosis; Treatment time Week 6 (N = 18)) | Infecting organism T. rubrum, number of patients (onychomycosis; [7]) | Outcome Mycological cure, number of patients (onychomycosis; [7])
30 % of Patients: Clinical - 100% clear (onychomycosis; 12 Weeks (n = 10))
8: % Nail infected >50%, number of patients (onychomycosis; [3]) | Dermatophyte culture Positive, number of patients (onychomycosis; [3]) | Infecting organism T. rubrum, number of patients (onychomycosis; [5]) | Dermatophyte culture Positive, number of patients (onychomycosis; Treatment time Week 6 (N = 18)) | Outcome Mycological change (culture positive to culture negative), number of patients (onychomycosis; [6]) | % Nail infected 11-50%, number of patients (onychomycosis; [7])
28%: "Mycological cure" patients (onychomycosis; after 26 weeks)
0.0700 % w/w as Cu: Minimum Fungicidal Concentration (MFC) (Candida albicans) | Minimum Inhibitory Concentration (MIC) (A. terrus) | Minimum Fungicidal Concentration (MFC) (C. tropicalis) | Minimum Fungicidal Concentration (MFC) (Fusarium spp.) | Minimum Inhibitory Concentration (MIC) (Fusarium spp.) | Minimum Fungicidal Concentration (MFC) (Microsporum canis)
0 % of Patients: Clinical - 100% clear (onychomycosis; 6 Weeks (n = 13)) | Complete cure (KOH negative, culture negative and 100% clear) (onychomycosis; 6 Weeks (n = 13)) | Mycology (KOH negative and culture negative) (onychomycosis; 6 Weeks (n = 13))
15: New growth Clear, number of patients (onychomycosis; [3]) | New growth Clear, number of patients (onychomycosis; [5])
0: % Nail infected 0% (clear), number of patients (onychomycosis; Treatment time Week 6 (N = 18)) | Outcome Complete cure, number of patients (onychomycosis; Treatment time Week 6 (N = 18))
8^#: Outcome Not effective, number of patients (onychomycosis; Treatment time Week 6 (N = 18), includes 2 patients that are KOH negative)
50%: Patients with >50% of nail plate diseased having significant clinical improvement (reduction to <50% of the nail plate) (onychomycosis; at 26 weeks) | Patients culture negative (onychomycosis; end of the trial)
0.0350 % w/w as Cu: Minimum Inhibitory Concentration (MIC) (Candida albicans) | Minimum Inhibitory Concentration (MIC) (C. tropicalis) | Minimum Fungicidal Concentration (MFC) (C. parasilosis) | Minimum Inhibitory Concentration (MIC) (C. parasilosis) | Minimum Fungicidal Concentration (MFC) (T. tonsurans) | Minimum Inhibitory Concentration (MIC) (T. tonsurans) | Minimum Inhibitory Concentration (MIC) (C. glabrate) | Minimum Inhibitory Concentration (MIC) (A. niger) | Minimum Fungicidal Concentration (MFC) (T. mentagrophytes) | Minimum Inhibitory Concentration (MIC) (Microsporum canis) | Minimum Fungicidal Concentration (MFC) [1] | Minimum Inhibitory Concentration (MIC) [1] | Minimum Fungicidal Concentration (MFC) (Epidermophyton floccosum) | Minimum Inhibitory Concentration (MIC) (Epidermophyton floccosum) | Minimum Fungicidal Concentration (MFC) [2] | Minimum Inhibitory Concentration (MIC) (Scopulariopsis spp.) | Minimum Inhibitory Concentration (MIC) (A. fumigatus) | Minimum Inhibitory Concentration (MIC) (Scedosporium spp.) | Minimum Inhibitory Concentration (MIC) (M. gypseum) | Minimum Fungicidal Concentration (MFC) (Trichophyton rubrum)
12: KOH Positive, number of patients (onychomycosis; [5]) | Dermatophyte culture Negative, number of patients (onychomycosis; [7]) | KOH Positive, number of patients (onychomycosis; [7])
70 % of Patients: Clinical - New growth clear (onychomycosis; 12 Weeks (n = 10))
14: KOH Positive, number of patients (onychomycosis; [3]) | KOH Positive, number of patients (onychomycosis; Treatment time Week 6 (N = 18)) | KOH Positive, number of patients (onychomycosis; [6])
22%: Patients "effectively treated" (onychomycosis; 26 weeks post treatment) | "Mycological cure" rate (onychomycosis; at 52 weeks)
61 % of Patients: Clinical - New growth clear (onychomycosis; 6 Weeks (n = 13))
6: % Nail infected 11-50%, number of patients (onychomycosis; [3]) | % Nail infected 11-50%, number of patients (onychomycosis; [5]) | KOH Negative, number of patients (onychomycosis; [5]) | Outcome Mycological change (culture positive to culture negative), number of patients (onychomycosis; Treatment time Week 6 (N = 18)) | Infecting organism T. rubrum, number of patients (onychomycosis; [6]) | % Nail infected >50%, number of patients (onychomycosis; [7]) | Dermatophyte culture Positive, number of patients (onychomycosis; [7]) | KOH Negative, number of patients (onychomycosis; [7])
>0.1400 % w/w as Cu: Minimum Fungicidal Concentration (MFC) (Aspergillus flavus) | Minimum Fungicidal Concentration (MFC) (A. terrus) | Minimum Fungicidal Concentration (MFC) (Scopulariopsis spp.) | Minimum Fungicidal Concentration (MFC) (A. fumigatus) | Minimum Fungicidal Concentration (MFC) (Scedosporium spp.)
9: Dermatophyte culture Positive, number of patients (onychomycosis; [5]) | Dermatophyte culture Negative, number of patients (onychomycosis; Post-treatment Week 26 (N = 18), = 52 weeks, end of the trial)
2: % Nail infected 1-10%, number of patients (onychomycosis; [5]) | % Nail infected 1-10%, number of patients (onychomycosis; Treatment time Week 6 (N = 18)) | Outcome Effective treatment, number of patients (onychomycosis; Treatment time Week 6 (N = 18)) | New growth Not clear, number of patients (onychomycosis; [6]) | Outcome Complete cure, number of patients (onychomycosis; [6]) | New growth Not clear, number of patients (onychomycosis; [7])
55%: Patients culture negative (onychomycosis; 13 weeks post-treatment)
7: Infecting organism T. rubrum, number of patients (onychomycosis; [3]) | Outcome Mycological change (culture positive to culture negative), number of patients (onychomycosis; [4]) | % Nail infected >50%, number of patients (onychomycosis; [5]) | Infecting organism T. rubrum, number of patients (onychomycosis; Treatment time Week 6 (N = 18)) | New growth Not clear, number of patients (onychomycosis; Treatment time Week 6 (N = 18)) | Dermatophyte culture Positive, number of patients (onychomycosis; [6]) | Outcome Mycological change (culture positive to culture negative), number of patients (onychomycosis; [7])
20 % of Patients: Complete cure (KOH negative, culture negative and 100% clear) (onychomycosis; 12 Weeks (n = 10)) | Mycology (KOH negative and culture negative) (onychomycosis; 12 Weeks (n = 10))
6^@: Outcome Not effective, number of patients (onychomycosis; Treatment time Week 26 (N = 18), includes 1 patient that is KOH negative)
4: KOH Negative, number of patients (onychomycosis; [3]) | Outcome Effective treatment, number of patients (onychomycosis; [5]) | Outcome Mycological cure, number of patients (onychomycosis; [5]) | KOH Negative, number of patients (onychomycosis; Treatment time Week 6 (N = 18)) | Outcome Mycological cure, number of patients (onychomycosis; Treatment time Week 6 (N = 18)) | % Nail infected 11-50%, number of patients (onychomycosis; [6]) | KOH Negative, number of patients (onychomycosis; [6])
53 % of Patients: Mycology (KOH negative or culture negative) (onychomycosis; 6 Weeks (n = 13))
11: % Nail infected >50%, number of patients (onychomycosis; Treatment time Week 6 (N = 18)) | New growth Clear, number of patients (onychomycosis; Treatment time Week 6 (N = 18)) | Dermatophyte culture Negative, number of patients (onychomycosis; [6])
9^@: Outcome Not effective, number of patients (onychomycosis; Post-treatment Week 26 (N = 18), includes 1 patient that is KOH negative)
16: New growth Clear, number of patients (onychomycosis; [6]) | New growth Clear, number of patients (onychomycosis; [7])
1: % Nail infected 1-10%, number of patients (onychomycosis; [3]) | Infecting organism T. mentagrophytes v. interdigitale, number of patients (onychomycosis; [3]) | Infecting organism T. mentagrophytes v. interdigitale, number of patients (onychomycosis; [5]) | Infecting organism T. mentagrophytes v. interdigitale, number of patients (onychomycosis; Treatment time Week 6 (N = 18)) | % Nail infected 1-10%, number of patients (onychomycosis; [6]) | Infecting organism T. mentagrophytes v. interdigitale, number of patients (onychomycosis; [6]) | % Nail infected 1-10%, number of patients (onychomycosis; [7]) | Infecting organism T. mentagrophytes v. interdigitale, number of patients (onychomycosis; [7])
0.1400 % w/w as Cu: Minimum Inhibitory Concentration (MIC) (Aspergillus flavus) | Minimum Fungicidal Concentration (MFC) (C. glabrate) | Minimum Fungicidal Concentration (MFC) (A. niger) | Minimum Fungicidal Concentration (MFC) (M. gypseum)
67%: Patients culture negative (onychomycosis; end of treatment)
3: % Nail infected 0% (clear), number of patients (onychomycosis; [3]) | New growth Not clear, number of patients (onychomycosis; [3]) | Outcome Complete cure, number of patients (onychomycosis; [3]) | Outcome Effective treatment, number of patients (onychomycosis; [3]) | Outcome Mycological cure, number of patients (onychomycosis; [3]) | % Nail infected 0% (clear), number of patients (onychomycosis; [5]) | New growth Not clear, number of patients (onychomycosis; [5]) | Outcome Complete cure, number of patients (onychomycosis; Post-treatment Week 26 (N = 18), = 52 weeks) | % Nail infected 0% (clear), number of patients (onychomycosis; [6]) | Outcome Effective treatment, number of patients (onychomycosis; [6]) | Outcome Mycological cure, number of patients (onychomycosis; [6]) | % Nail infected 0% (clear), number of patients (onychomycosis; [7]) | Outcome Complete cure, number of patients (onychomycosis; [7]) | Outcome Effective treatment, number of patients (onychomycosis; [7])
80 % of Patients: Mycology (KOH negative or culture negative) (onychomycosis; 12 Weeks (n = 10))
7^@: Outcome Not effective, number of patients (onychomycosis; Treatment time Week 12 (N = 18), includes 1 patient that is KOH negative)

Reference: patent US20050100561A1, “Use of topical compositions for the control of microbial diseases of the nail” (priority 2002, published 2005)
